Data: ChEMBL document CHEMBL1137357, “Further synthetic and biological studies on vitamin D hormone antagonists based on C24-alkylation and C2alpha-functionalization of 25-dehydro-1alpha-hydroxyvitamin D(3)-26,23-lactones” (J Med Chem, 2006)

Target: T1, Vitamin D3 receptor (Homo sapiens) (UniProt P11473)
T1 sequence (whole entry): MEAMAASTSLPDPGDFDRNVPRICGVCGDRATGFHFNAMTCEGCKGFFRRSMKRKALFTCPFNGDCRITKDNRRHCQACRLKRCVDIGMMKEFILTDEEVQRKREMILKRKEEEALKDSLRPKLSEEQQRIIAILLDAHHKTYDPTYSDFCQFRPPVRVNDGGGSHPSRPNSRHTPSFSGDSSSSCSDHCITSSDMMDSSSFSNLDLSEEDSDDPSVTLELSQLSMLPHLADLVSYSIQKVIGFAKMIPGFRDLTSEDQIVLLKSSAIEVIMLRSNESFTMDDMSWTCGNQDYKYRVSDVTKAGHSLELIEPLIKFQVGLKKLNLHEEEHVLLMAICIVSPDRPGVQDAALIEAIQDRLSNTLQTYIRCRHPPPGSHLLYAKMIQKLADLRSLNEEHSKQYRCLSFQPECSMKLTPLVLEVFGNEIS
Test: Antagonist activity against 1-alpha,25-dihydroxy vitamin D3-induced HL60 cell differentiation by NBT reduction method relative to TEI-9647
Format: functional, cell-based
Parameters: scale not given: the % may be the effect or the level left
Conditions: HL-60

SMILES	Activity [%]
C=C1/C(=C\C=C2/CCC[C@]3(C)[C@@H]([C@H](C)C[C@H]4OC(=O)C(=C)[C@H]4CC(C)C)CC[C@@H]23)C[C@@H](O)[C@H](CCCO)[C@@H]1O	31
C=C1/C(=C\C=C2/CCC[C@]3(C)[C@@H]([C@H](C)C[C@@H]4OC(=O)C(=C)[C@H]4CCC)CC[C@@H]23)C[C@@H](O)[C@H](CCCO)[C@@H]1O	913
C=C1/C(=C\C=C2/CCC[C@]3(C)[C@@H]([C@H](C)C[C@H]4OC(=O)C(=C)[C@@H]4CCCC)CC[C@@H]23)C[C@@H](O)[C@H](CCCO)[C@@H]1O	303
C=C1/C(=C\C=C2/CCC[C@]3(C)[C@@H]([C@H](C)C[C@@H]4OC(=O)C(=C)[C@H]4CC)CC[C@@H]23)C[C@@H](O)[C@H](OCCCO)[C@@H]1O	158
C=C1C(=O)O[C@@H](C[C@@H](C)[C@H]2CC[C@H]3/C(=C/C=C4/C[C@@H](O)C[C@H](O)C4=C)CCC[C@]23C)[C@@H]1CCC	60
C=C1/C(=C\C=C2/CCC[C@]3(C)[C@@H]([C@H](C)C[C@H]4OC(=O)C(=C)[C@@H]4C)CC[C@@H]23)C[C@@H](O)[C@H](OCCCO)[C@@H]1O	12
C=C1/C(=C\C=C2/CCC[C@]3(C)[C@@H]([C@H](C)C[C@@H]4OC(=O)C(=C)[C@H]4CCCC)CC[C@@H]23)C[C@@H](O)[C@H](C)[C@@H]1O	216
C=C1/C(=C\C=C2/CCC[C@]3(C)[C@@H]([C@H](C)C[C@H]4OC(=O)C(=C)[C@H]4CCC)CC[C@@H]23)C[C@@H](O)[C@H](CCCO)[C@@H]1O	117
C=C1/C(=C\C=C2/CCC[C@]3(C)[C@@H]([C@H](C)C[C@@H]4OC(=O)C(=C)[C@@H]4CC)CC[C@@H]23)C[C@@H](O)[C@H](OCCCO)[C@@H]1O	600
C=C1/C(=C\C=C2/CCC[C@]3(C)[C@@H]([C@H](C)C[C@H]4OC(=O)C(=C)C45CC5)CC[C@@H]23)C[C@@H](O)C[C@@H]1O	< 0.3
C=C1/C(=C\C=C2/CCC[C@]3(C)[C@@H]([C@H](C)C[C@H]4OC(=O)C(=C)[C@H]4CCC)CC[C@@H]23)C[C@@H](O)[C@H](C)[C@@H]1O	170
C=C1/C(=C\C=C2/CCC[C@]3(C)[C@@H]([C@H](C)C[C@H]4OC(=O)C(=C)[C@H]4CC(C)C)CC[C@@H]23)C[C@@H](O)[C@H](C)[C@@H]1O	50
C=C1/C(=C\C=C2/CCC[C@]3(C)[C@@H]([C@H](C)C[C@@H]4OC(=O)C(=C)[C@H]4CCCC)CC[C@@H]23)C[C@@H](O)[C@H](CCCO)[C@@H]1O	122
C=C1/C(=C\C=C2/CCC[C@]3(C)[C@@H]([C@H](C)C[C@@H]4OC(=O)C(=C)[C@@H]4CC)CC[C@@H]23)C[C@@H](O)C[C@@H]1O	345
C=C1C(=O)O[C@H](C[C@@H](C)[C@H]2CC[C@H]3/C(=C/C=C4/C[C@@H](O)[C@H](C)[C@H](O)C4=C)CCC[C@]23C)[C@@H]1C	476
C=C1/C(=C\C=C2/CCC[C@]3(C)[C@@H]([C@H](C)C[C@H]4OC(=O)C(=C)[C@H]4CCCC)CC[C@@H]23)C[C@@H](O)[C@H](C)[C@@H]1O	102
C=C1C(=O)O[C@@H](C[C@@H](C)[C@H]2CC[C@H]3/C(=C/C=C4/C[C@@H](O)[C@H](C)[C@H](O)C4=C)CCC[C@]23C)[C@@H]1C	6190
